Results: patent publication US12421225B2, “Heteroaromatic amide derivative and medicament containing the same” (KAKEN PHARMACEUTICAL CO., LTD., priority 2018, dated 2025)

Tests used:
human Nav1.7 = human Nav1.7 (Homo sapiens (Human), UniProt Q15858); experiment: Human Nav1.7 inhibitory activity evaluation (automated patch clamp QPatch16X, HEK293A cells stably expressing human Nav1.7 and human Navβ1); assay type: cell-based
Method in brief: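 IC50 calculated from the concentration-response of inward current evoked by the second −10 mV, 50 ms depolarisation, which follows a 15 s conditioning step at roughly 30-40% inactivation and a 100 ms −120 mV interval. Cells: HEK293A expressing human Nav1.7/Navβ1, automated patch clamp, room temperature, 0.1% DMSO final.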

human Nav1.5 = human Nav1.5 (Homo sapiens (Human), UniProt Q14524); experiment: Human Nav1.5 inhibitory activity evaluation (automated patch clamp QPatch16X, HEK293 cells stably expressing human Nav1.5); assay type: cell-based
Chain of human Nav1.5 (Q14524 whole entry): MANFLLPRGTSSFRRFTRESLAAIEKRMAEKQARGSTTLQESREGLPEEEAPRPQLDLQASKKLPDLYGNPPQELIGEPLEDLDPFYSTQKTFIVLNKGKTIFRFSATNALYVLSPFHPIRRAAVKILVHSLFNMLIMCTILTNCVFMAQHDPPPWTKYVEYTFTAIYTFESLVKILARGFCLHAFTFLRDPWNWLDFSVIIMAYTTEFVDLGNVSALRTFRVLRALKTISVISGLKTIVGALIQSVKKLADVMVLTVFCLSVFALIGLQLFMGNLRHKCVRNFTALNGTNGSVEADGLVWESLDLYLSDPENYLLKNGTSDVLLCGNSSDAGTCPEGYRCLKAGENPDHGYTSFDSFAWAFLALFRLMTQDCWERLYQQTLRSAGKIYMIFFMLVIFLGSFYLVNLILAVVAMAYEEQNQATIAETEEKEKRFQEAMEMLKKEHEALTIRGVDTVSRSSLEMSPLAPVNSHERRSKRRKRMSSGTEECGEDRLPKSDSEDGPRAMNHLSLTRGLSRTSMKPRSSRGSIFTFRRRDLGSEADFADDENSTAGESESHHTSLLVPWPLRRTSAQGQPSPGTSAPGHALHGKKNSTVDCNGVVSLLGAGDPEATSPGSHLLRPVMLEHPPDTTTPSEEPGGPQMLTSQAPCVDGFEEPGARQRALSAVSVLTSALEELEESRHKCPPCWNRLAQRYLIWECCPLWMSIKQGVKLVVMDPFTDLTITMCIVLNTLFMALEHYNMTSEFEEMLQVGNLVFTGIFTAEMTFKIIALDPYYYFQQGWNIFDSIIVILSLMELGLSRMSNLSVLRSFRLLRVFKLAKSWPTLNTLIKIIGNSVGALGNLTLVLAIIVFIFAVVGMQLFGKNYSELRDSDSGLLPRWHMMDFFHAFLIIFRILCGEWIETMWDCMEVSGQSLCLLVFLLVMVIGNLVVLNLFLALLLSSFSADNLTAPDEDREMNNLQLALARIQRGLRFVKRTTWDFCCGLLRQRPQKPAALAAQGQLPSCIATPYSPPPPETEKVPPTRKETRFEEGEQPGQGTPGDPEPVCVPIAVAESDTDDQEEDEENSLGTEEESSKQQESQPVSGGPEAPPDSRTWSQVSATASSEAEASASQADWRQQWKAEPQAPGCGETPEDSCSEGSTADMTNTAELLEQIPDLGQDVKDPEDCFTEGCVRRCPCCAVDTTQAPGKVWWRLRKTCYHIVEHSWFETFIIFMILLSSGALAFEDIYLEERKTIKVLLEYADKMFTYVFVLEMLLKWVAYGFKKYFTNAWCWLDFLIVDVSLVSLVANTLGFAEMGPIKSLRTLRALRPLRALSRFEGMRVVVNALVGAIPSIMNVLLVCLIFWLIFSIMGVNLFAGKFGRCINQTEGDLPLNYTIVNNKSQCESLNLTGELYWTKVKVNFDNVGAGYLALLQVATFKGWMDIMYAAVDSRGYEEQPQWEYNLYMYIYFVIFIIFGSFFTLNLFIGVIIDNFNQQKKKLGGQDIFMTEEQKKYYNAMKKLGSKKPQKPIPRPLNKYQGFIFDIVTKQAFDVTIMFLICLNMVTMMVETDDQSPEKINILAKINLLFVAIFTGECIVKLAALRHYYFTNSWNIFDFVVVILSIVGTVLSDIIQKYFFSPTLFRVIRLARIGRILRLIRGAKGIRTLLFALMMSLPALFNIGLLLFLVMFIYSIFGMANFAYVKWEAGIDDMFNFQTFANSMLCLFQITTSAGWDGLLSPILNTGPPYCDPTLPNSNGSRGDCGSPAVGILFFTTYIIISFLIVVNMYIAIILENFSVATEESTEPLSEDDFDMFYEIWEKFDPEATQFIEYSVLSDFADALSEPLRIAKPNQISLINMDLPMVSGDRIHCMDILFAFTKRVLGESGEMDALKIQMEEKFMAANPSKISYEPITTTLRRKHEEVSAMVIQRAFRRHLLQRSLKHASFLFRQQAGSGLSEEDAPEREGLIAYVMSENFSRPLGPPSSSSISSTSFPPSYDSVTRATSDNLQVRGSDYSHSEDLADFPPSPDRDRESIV
Method in brief: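 IC50 derived from concentration-response of inward current at the 20th of 20 action-potential-mimicking pulses (holding −80 mV, leak corrected with −100 mV step). HEK293 cells stably expressing human Nav1.5, room temperature, extracellular pH 7.4, intracellular CsF-based pH 7.3, 0.1% DMSO.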

[1] = human Nav1.7, automated patch clamp
[2] = human Nav1.5, automated patch clamp
[3] = HEK293A cells stably expressing human Nav1.7 and human Navβ1, automated patch clamp QPatch16X
[4] = HEK293 cells stably expressing human Nav1.5, automated patch clamp QPatch16X

Chain of human Nav1.7 (Q15858 whole entry): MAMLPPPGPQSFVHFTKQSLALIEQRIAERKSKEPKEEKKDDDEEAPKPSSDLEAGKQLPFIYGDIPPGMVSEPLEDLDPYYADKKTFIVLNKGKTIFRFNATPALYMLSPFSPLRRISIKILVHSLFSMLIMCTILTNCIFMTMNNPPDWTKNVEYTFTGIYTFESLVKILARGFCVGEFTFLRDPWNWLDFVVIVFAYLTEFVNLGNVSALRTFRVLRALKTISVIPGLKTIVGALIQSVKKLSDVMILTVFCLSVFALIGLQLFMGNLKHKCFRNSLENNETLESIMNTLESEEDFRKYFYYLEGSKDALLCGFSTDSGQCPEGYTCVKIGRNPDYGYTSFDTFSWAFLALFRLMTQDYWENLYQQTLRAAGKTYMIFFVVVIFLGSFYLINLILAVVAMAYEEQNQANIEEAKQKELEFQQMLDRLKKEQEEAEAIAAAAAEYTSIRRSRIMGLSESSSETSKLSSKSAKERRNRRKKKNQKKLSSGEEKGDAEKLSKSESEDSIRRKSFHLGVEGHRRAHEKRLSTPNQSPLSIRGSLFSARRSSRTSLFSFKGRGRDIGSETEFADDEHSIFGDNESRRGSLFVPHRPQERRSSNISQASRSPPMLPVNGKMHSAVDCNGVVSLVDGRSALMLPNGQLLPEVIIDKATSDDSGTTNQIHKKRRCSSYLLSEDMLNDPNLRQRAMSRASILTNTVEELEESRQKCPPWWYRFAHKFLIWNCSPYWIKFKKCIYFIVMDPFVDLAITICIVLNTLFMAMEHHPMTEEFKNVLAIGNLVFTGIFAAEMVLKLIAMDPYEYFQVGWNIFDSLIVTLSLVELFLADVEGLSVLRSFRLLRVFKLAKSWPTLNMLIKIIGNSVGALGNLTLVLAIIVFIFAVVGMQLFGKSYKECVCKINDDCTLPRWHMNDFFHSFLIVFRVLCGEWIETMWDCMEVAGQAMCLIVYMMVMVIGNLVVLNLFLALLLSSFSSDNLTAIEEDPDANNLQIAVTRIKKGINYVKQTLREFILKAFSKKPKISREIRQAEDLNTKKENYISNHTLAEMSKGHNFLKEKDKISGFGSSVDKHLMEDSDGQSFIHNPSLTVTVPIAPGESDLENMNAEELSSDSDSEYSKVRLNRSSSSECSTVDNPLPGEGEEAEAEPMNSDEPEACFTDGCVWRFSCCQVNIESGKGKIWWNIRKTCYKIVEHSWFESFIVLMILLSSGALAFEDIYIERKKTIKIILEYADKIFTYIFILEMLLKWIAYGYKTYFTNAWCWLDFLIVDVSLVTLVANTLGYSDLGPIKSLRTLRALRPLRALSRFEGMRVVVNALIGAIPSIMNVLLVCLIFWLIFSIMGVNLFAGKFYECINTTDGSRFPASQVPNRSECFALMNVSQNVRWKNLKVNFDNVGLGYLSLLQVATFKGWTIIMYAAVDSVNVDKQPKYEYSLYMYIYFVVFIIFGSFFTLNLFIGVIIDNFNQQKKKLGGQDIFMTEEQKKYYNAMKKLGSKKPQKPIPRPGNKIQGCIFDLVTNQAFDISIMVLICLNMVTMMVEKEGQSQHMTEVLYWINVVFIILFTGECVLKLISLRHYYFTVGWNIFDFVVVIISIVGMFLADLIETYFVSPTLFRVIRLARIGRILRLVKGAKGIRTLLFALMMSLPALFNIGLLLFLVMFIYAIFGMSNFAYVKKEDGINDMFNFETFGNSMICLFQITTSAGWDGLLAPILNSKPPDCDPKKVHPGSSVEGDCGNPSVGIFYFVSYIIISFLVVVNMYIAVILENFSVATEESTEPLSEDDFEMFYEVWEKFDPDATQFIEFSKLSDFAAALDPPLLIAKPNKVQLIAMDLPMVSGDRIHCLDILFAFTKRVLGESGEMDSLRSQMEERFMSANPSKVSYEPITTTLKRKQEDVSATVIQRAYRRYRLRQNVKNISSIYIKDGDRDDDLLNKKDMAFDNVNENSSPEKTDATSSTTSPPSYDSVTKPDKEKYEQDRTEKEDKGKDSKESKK
Chain of human Nav1.7 (Q07699 19-218 partner): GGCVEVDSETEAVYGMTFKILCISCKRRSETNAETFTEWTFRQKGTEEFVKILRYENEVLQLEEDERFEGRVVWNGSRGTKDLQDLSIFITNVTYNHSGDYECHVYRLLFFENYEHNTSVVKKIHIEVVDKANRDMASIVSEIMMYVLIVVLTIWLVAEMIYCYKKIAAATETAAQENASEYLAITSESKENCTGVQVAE

Row | SMILES | IC50 (human Nav1.7; [1]) [µM] | IC50 (human Nav1.5; [2]) [µM] | IC50 (human Nav1.7; [3]) [µM] | IC50 (human Nav1.5; [4]) [µM]
1 | O=C(N[C@H]1COc2ccc(COCC(F)(F)F)cc2C1)c1cc2n(n1)CC(CCNCC(F)(F)F)O2 (single isomer, unassigned) [232 (isomer B)] | < 1 | ≥ 3 |  | 
2 | O=C(N[C@H]1COc2ccc(Cl)cc2C1)c1cc2n(n1)CC(CCN1CC(F)(F)C1)O2 (single isomer, unassigned) [234 (isomer A)] | < 1 | ≥ 3 |  | 
3 | O=C(N[C@H]1COc2ccc(Cl)cc2C1)c1cc2n(n1)CC(CCN1CC(F)(F)C1)O2 (single isomer, unassigned) [234 (isomer B)] | < 1 | < 1 |  | 
4 | O=C(N[C@H]1COc2ccc(C(F)(F)F)cc2C1)c1cc2n(n1)CC(CCN1CC(F)(F)C1)O2 (single isomer, unassigned) [236 (isomer B)] | < 1 | 1 to 3 |  | 
5 | N#Cc1ccc2c(c1)C[C@@H](NC(=O)c1cc3n(n1)CC(CCSCC(F)(F)F)O3)CO2 (single isomer, unassigned) [244 (isomer B)] | < 1 | < 1 |  | 
6 | N#Cc1ccc2c(c1)C[C@@H](NC(=O)c1cc3n(n1)CC(CCCOCC(F)(F)F)O3)CO2 (single isomer, unassigned) [246 (isomer A)] | < 1 | 1 to 3 |  | 
7 | N#Cc1ccc2c(c1)C[C@@H](NC(=O)c1cc3n(n1)CC(CCCOCC(F)(F)F)O3)CO2 (single isomer, unassigned) [246 (isomer B)] | < 1 | ≥ 3 |  | 
8 | N#Cc1ccc2c(c1)C[C@@H](NC(=O)c1cc3n(n1)CC(CCCOC(F)(F)F)O3)CO2 (single isomer, unassigned) [247 (isomer A)] | < 1 | 1 to 3 |  | 
9 | N#Cc1ccc2c(c1)C[C@@H](NC(=O)c1cc3n(n1)CC(CCCOC(F)F)O3)CO2 (single isomer, unassigned) [248 (isomer A)] | < 1 | 1 to 3 |  | 
10 | O=C(N[C@H]1COc2ccc(Cl)cc2C1)c1cc2n(n1)CCC(OCC(F)(F)F)CO2 (single isomer, unassigned) [256 (isomer A)] | < 1 | ≥ 3 |  | 
11 | O=C(N[C@H]1COc2ccc(Cl)cc2C1)c1cc2n(n1)CCC(OCC(F)(F)F)CO2 (single isomer, unassigned) [256 (isomer B)] | < 1 | 1 to 3 |  | 
12 | O=C(N[C@H]1COc2ccc(C(F)(F)F)cc2C1)c1cc2n(n1)CCC(OCC(F)(F)F)CO2 (single isomer, unassigned) [257 (isomer A)] | < 1 | ≥ 3 |  | 
13 | CC(C)(F)C1CCn2nc(C(=O)N[C@H]3COc4ccc(C#N)cc4C3)cc2O1 (single isomer, unassigned) [547 (isomer A)] | < 10 | ≥ 3 |  | 
14 | N#Cc1ccc2c(c1)C[C@@H](NC(=O)c1cc3n(n1)CCC(COCC1(F)CC1)O3)CO2 (single isomer, unassigned) [552 (isomer A)] | < 10 | ≥ 3 |  | 
15 | N#CC1(COCC2CCn3nc(C(=O)N[C@H]4COc5ccc(C(F)(F)F)cc5C4)cc3O2)CC1 (single isomer, unassigned) [554 (isomer A)] | < 1 | ≥ 3 |  | 
16 | N#CC1(COCC2CCn3nc(C(=O)N[C@H]4COc5ccc(Cl)cc5C4)cc3O2)CC1 (single isomer, unassigned) [563 (isomer A)] | < 10 | 1 to 3 |  | 
17 | N#CC1(COCC2CCn3nc(C(=O)N[C@H]4COc5ccc(Cl)cc5C4)cc3O2)CC1 (single isomer, unassigned) [563 (isomer B)] | < 1 | ≥ 3 |  | 
18 | COC1c2cc(C(F)(F)F)ccc2OC[C@@H]1NC(=O)c1cc2n(n1)CCC(COCC(F)(F)F)O2 (single isomer, unassigned) [598 (isomer B)] | < 1 | 1 to 3 |  | 
19 | O=C(N[C@H]1COc2ccc(C(F)(F)F)cc2C1O)c1cc2n(n1)CC(CCOCC(F)(F)F)O2 (single isomer, unassigned) [600 (isomer B)] | < 1 | 1 to 3 |  | 
20 | O=C(N[C@H]1COc2ccc(CC(F)F)cc2C1)c1cc2n(n1)CCC(COCC(F)(F)F)CO2 (single isomer, unassigned) [601 (isomer B)] | < 10 | ≥ 3 |  | 
21 | O=C(N[C@H]1COc2ccc(COCC(F)(F)F)cc2C1)c1cc2n(n1)CCC(COCC(F)(F)F)CO2 (single isomer, unassigned) [602 (isomer A)] | < 1 | ≥ 3 |  | 
22 | O=C(N[C@H]1COc2ccc(C(F)(F)F)cc2C1O)c1cc2n(n1)CC(CCCOCC(F)(F)F)O2 (single isomer, unassigned) [603 (isomer B)] | < 1 | ≥ 3 |  | 
23 | N#Cc1ccc2c(c1)C[C@@H](NC(=O)c1cc3n(n1)CC(CCCOCC(F)F)O3)CO2 (single isomer, unassigned) [604 (isomer A)] | < 1 | 1 to 3 |  | 

Row | SMILES | IC50 (human Nav1.7; [1]) [µM] | IC50 (human Nav1.5; [2]) [µM] | IC50 (human Nav1.7; [3]) [µM] | IC50 (human Nav1.5; [4]) [µM]
24 | O=C(N[C@H]1COc2ccc(C(F)(F)F)cc2C1O)c1cc2n(n1)CC(CCCOCC(F)F)O2 (single isomer, unassigned) [608 (isomer A)] | < 1 | ≥ 3 |  | 
25 | O=C(N[C@H]1COc2ccc(C(F)(F)F)cc2C1O)c1cc2n(n1)CC(CCCOCC(F)F)O2 (single isomer, unassigned) [608 (isomer B)] | < 1 | ≥ 3 |  | 
26 | O=C(N[C@H]1COc2ccc(C(F)(F)F)cc2C1O)c1cc2n(n1)CC(CCCOCC(F)F)O2 (single isomer, unassigned) [610 (isomer A)] | < 1 | ≥ 3 |  | 
27 | O=C(N[C@H]1COc2ccc(COCC(F)(F)F)cc2C1)c1cc2n(n1)CCC(C1CCOCC1)O2 (single isomer, unassigned) [615 (isomer A)] | < 1 | 1 to 3 |  | 
28 | O=C(N[C@H]1COc2ccc(COCC(F)(F)F)cc2C1)c1cc2n(n1)CCC(C1CCOCC1)O2 (single isomer, unassigned) [615 (isomer B)] | < 1 | ≥ 3 |  | 
29 | O=C(N[C@H]1COc2ccc(C(F)(F)F)cc2C1O)c1cc2n(n1)CC(CCCOCC(F)(F)F)O2 (single isomer, unassigned) [616 (isomer A)] | < 1 | 1 to 3 |  | 
30 | N#Cc1ccc2c(c1)C(F)[C@@H](NC(=O)c1cc3n(n1)CCC(COCC1CC1)O3)CO2 (single isomer, unassigned) [617 (isomer A)] | < 1 | ≥ 3 |  | 
31 | N#Cc1ccc2c(c1)C(F)[C@@H](NC(=O)c1cc3n(n1)CCC(COCC1CC1)O3)CO2 (single isomer, unassigned) [617 (isomer C)] | < 10 | ≥ 3 |  | 
32 | O=C(N[C@H]1COc2ccc(COCC(F)(F)F)cc2C1)c1cc2n(n1)CC(CC1CCOCC1)O2 (single isomer, unassigned) [622 (isomer A)] | < 1 | ≥ 3 |  | 
33 | O=C(N[C@H]1COc2ccc(Cl)cc2C1)c1cn2c(n1)CCC(C(F)(F)F)C2 (single isomer, unassigned) [Example 2 (isomer A)] |  |  | < 1 | 1 to 3
34 | O=C(N[C@H]1COc2ccc(Cl)cc2C1)c1cn2c(n1)CCC(C(F)(F)F)C2 (single isomer, unassigned) [Example 2 (isomer B)] |  |  | < 1 | ≥ 3
35 | CN(C(=O)c1cn2c(n1)CCC(C(F)(F)F)C2)[C@H]1COc2ccc(Cl)cc2C1 (single isomer, unassigned) [Example 4] |  |  | < 10 | ≥ 3
36 | O=C(N[C@H]1COc2ccc(C(F)(F)F)cc2C1O)c1cc2n(n1)CCC(COCC(F)(F)F)CO2 (single isomer, unassigned) [Example 683] | < 10 | ≥ 3 |  | 
37 | N#Cc1ccc2c(c1)C[C@@H](NC(=O)c1cc3n(n1)CC[C@H](COCC(F)(F)F)CO3)CO2 (single isomer, unassigned; isomer a) [572(isomer A)] | < 10 | ≥ 3 |  | 
38 | O=C(N[C@H]1COc2ccc(C(F)(F)F)cc2C1O)c1cc2n(n1)CC[C@H](COCC1CC1)O2 (single isomer, unassigned; isomer a) [575(isomer A)] | < 1 | 1 to 3 |  | 
39 | O=C(N[C@H]1COc2ccc(C(F)(F)F)cc2C1O)c1cc2n(n1)C[C@H](COCC1CC1)O2 (single isomer, unassigned; isomer a) [576(isomer A)] | < 1 | ≥ 3 |  | 
40 | O=C(N[C@H]1COc2ccc(C(F)(F)F)cc2C1F)c1cc2n(n1)CC[C@H](C(F)F)O2 (single isomer, unassigned; isomer a) [579(isomer A)] | < 1 | 1 to 3 |  | 
41 | COC1c2cc(C(F)(F)F)ccc2OC[C@@H]1NC(=O)c1cc2n(n1)CC(COCC(F)(F)F)O2 (single isomer, unassigned; isomer a) [597(isomer A)] | < 1 | ≥ 3 |  | 
42 | COC1c2cc(C(F)(F)F)ccc2OC[C@@H]1NC(=O)c1cc2n(n1)CC(COCC(F)(F)F)O2 (single isomer, unassigned; isomer b) [597(isomer B)] | < 1 | 1 to 3 |  | 
43 | O=C(NC1COc2ccc(F)cc2C1)c1cn2c(n1)CCC(C(F)(F)F)C2 (centres unmarked) [Example 1, N-(6-fluorochroman-3-yl)-6-(trifluoromethyl)-5,6,7,8-tetrahydroimidazo[1,2-a]pyridine-2-carboxamide] |  |  | < 10 | ≥ 3
44 | CN(C(=O)c1cn2c(n1)CCC(C(F)(F)F)C2)[C@H]1COc2ccc(Cl)cc2C1 (some centres unmarked) [Example 3] |  |  | < 1 | 1 to 3
45 | O=C(N[C@H]1COc2ccc(Br)cc2C1)c1cn2c(n1)CCC(C(F)(F)F)C2 (some centres unmarked) [Example 5] |  |  | < 1 | 1 to 3
46 | O=C(N[C@H]1COc2ccc(C(F)F)cc2C1)c1cn2c(n1)CCC(C(F)(F)F)C2 (some centres unmarked) [Example 6] |  |  | < 10 | 1 to 3
